Assay results: US7935853B2, “Micronized composition of a 2,4-disubstituted phenol derivative” (priority 2008, dated 2011)
Converted amounts (≈) assume the structure as drawn.

What was measured:
[1] = test system: arthritis induced by injection of type II collagen in the mouse; assay: Model of arthritis induced by type II collagen in mice (CIA), hind paw plethysmometry; format: in vivo; conditions: for Total hind paw volume (sum of both hind paws) / Oedema (difference in paw volume from basal values on day 21) in both hind paws: group mean n=10
Protocol: The aim of the study was to determine the anti-inflammatory activity of the test item in a model of arthritis induced by injection of type II collagen in the mouse (CIA) and to compare the activity of two different formulations: micronized and non-micronized.
Induction of arthritis was carried out by an initial exposure to type II bovine collagen by a subcutaneous injection at the base of the tail (induction phase).
After a recovery time of 21 days, animals received a booster injection and approximately 4-5 weeks after the first injection there was an immune response with arthritis appearing in the extremities in the majority of the cases.
Four experimental groups were used in the study with 10 animals in each group:
Group D: Positive control: FCA+vehicle B.I.D.
Group E: Micronized Test Item (Micro) 10 mg/kg B.I.D.
Group F: Non-Micronized test item 10 mg/kg B.I.D.
Group G: Reference item: Indomethacin 1 mg/kg Q.D.
The dose administered to groups E and F was 10 mg/kg.
The dose administered to group G was 1 mg/kg.
The doses of the test and reference items were expressed as mg/Kg of compound administered to each animal.
The test and reference items were administered in a solution of methylcellulose (0.25%: vehicle).
The positive control group received the vehicle (methylcellulose 0.25%).
The test and reference items, as well as the vehicle were administered orally at a dosing volume of 5 mls/kg.
The route of administration used was oral by use of an intragastric cannula.
On the day of start of the study each mouse was injected subcutaneously at the base of the tail with a first dose of 0.1 ml of an emulsion of bovine type II collagen (1 mg/mL) in Freund's Complete Adjuvant. Afterwards, on day 21 after this first injection, a second booster injection of type II collagen was administered to all animals. In this occasion the collagen suspension was done using Incomplete Freund's Adjuvant.
Coinciding with the second booster injection on day 21 treatment with the test or reference items was started to the corresponding animals.
Treatment with the test or reference items was carried out for 31 consecutive days (days 21-51 of the experimental period). Additionally, a recovery period was included at the end of the treatment period from day 52 to day 65 in order to evaluate the duration of any anti-inflammatory effect observed once dosing has been terminated.
The animals' hind paw volume was measured by plethysmometry one day before the 1st injection of collagen, again one day before the second (booster) collagen injection (basal values) and then daily after administration of test/reference item until the end of the study. During the recovery period at the end of the study, hind paw volume was measured three times per week.
Additionally the data was also represented graphically, depicting changes in total hind paw volume, as well as oedema (differences from basal (day 21) values).

LTB4 synthesis = assay: First phase I trial, plasma concentration vs LTB4 synthesis inhibition (EMAX); format: in vivo; conditions: Homo sapiens; healthy volunteers, single oral dose, EMAX type relationship; read-out: IC50 (level of drug in plasma eliciting half of maximal LTB4 synthesis inhibition)
Excerpt: (§1) 2,4,6-triiodophenol is a potent leukotriene B4 (LTB4) synthesis inhibitor that is currently under clinical development. The exact mechanism of action of 2,4,6-triiodophenol is not completely understood but it is known that the inhibition of the enzyme 5-lipoxygenase is involved.

[2] = First phase I clinical trial, single oral dose, safety and pharmacokinetics; format: in vivo, human; conditions: healthy volunteers
Protocol: as §1
A preliminary exploratory analysis was done by simulating the typical pharmacokinetic profiles after single and multiple 240, 350, and 500 mg dose regimens based on the pharmacokinetic model and model parameter estimates obtained from the first phase I study, where 2,4,6-triiodophenol was given to healthy volunteers in a single dose ranging from 6 to 1200 mg.

[3] = day 22, oral treatment days 21-51
[4] = day 23, oral treatment days 21-51
[5] = day 26, oral treatment days 21-51
[6] = day 27, oral treatment days 21-51
[7] = day 29, oral treatment days 21-51
[8] = day 30, oral treatment days 21-51
[9] = day 33, oral treatment days 21-51
[10] = day 34, oral treatment days 21-51
[11] = day 35, oral treatment days 21-51
[12] = day 36, oral treatment days 21-51
[13] = day 37, oral treatment days 21-51
[14] = day 40, oral treatment days 21-51
[15] = day 41, oral treatment days 21-51
[16] = day 42, oral treatment days 21-51
[17] = day 43, oral treatment days 21-51
[18] = day 44, oral treatment days 21-51
[19] = day 47, oral treatment days 21-51
[20] = day 48, oral treatment days 21-51
[21] = day 49, oral treatment days 21-51
[22] = day 50, oral treatment days 21-51
[23] = day 51, oral treatment days 21-51
[24] = day 54, recovery period after treatment days 21-51
[25] = day 56, recovery period after treatment days 21-51
[26] = day 58, recovery period after treatment days 21-51
[27] = day 61, recovery period after treatment days 21-51
[28] = day 63, recovery period after treatment days 21-51
[29] = day 65, recovery period after treatment days 21-51

COc1ccc2c(c1)c(CC(=O)O)c(C)n2C(=O)c1ccc(Cl)cc1 [Indomethacin, reference compound]
Total hind paw volume (sum of both hind paws) ([1]; day 0, before collagen and treatment): 0.175 | Total hind paw volume (sum of both hind paws) ([1]; day 20, basal, before treatment): 0.227 | Oedema (difference in paw volume from basal values on day 21) in both hind paws [1, 3]: 0.000 | Total hind paw volume (sum of both hind paws) [1, 3]: 0.227 | Oedema (difference in paw volume from basal values on day 21) in both hind paws [1, 4]: 0.000 | Total hind paw volume (sum of both hind paws) [1, 4]: 0.227 | Oedema (difference in paw volume from basal values on day 21) in both hind paws [1, 5]: 0.022 | Total hind paw volume (sum of both hind paws) [1, 5]: 0.249 | Oedema (difference in paw volume from basal values on day 21) in both hind paws [1, 6]: 0.001 | Total hind paw volume (sum of both hind paws) [1, 6]: 0.228 | Oedema (difference in paw volume from basal values on day 21) in both hind paws [1, 7]: 0.011 | Total hind paw volume (sum of both hind paws) [1, 7]: 0.237 | Oedema (difference in paw volume from basal values on day 21) in both hind paws [1, 8]: 0.012 | Total hind paw volume (sum of both hind paws) [1, 8]: 0.239 | Oedema (difference in paw volume from basal values on day 21) in both hind paws [1, 9]: 0.012 | Total hind paw volume (sum of both hind paws) [1, 9]: 0.238 | Oedema (difference in paw volume from basal values on day 21) in both hind paws [1, 10]: 0.013 | Total hind paw volume (sum of both hind paws) [1, 10]: 0.240 | Oedema (difference in paw volume from basal values on day 21) in both hind paws [1, 11]: 0.020 | Total hind paw volume (sum of both hind paws) [1, 11]: 0.246 | Oedema (difference in paw volume from basal values on day 21) in both hind paws [1, 12]: 0.012 | Total hind paw volume (sum of both hind paws) [1, 12]: 0.239 | Oedema (difference in paw volume from basal values on day 21) in both hind paws [1, 13]: −0.005 | Total hind paw volume (sum of both hind paws) [1, 13]: 0.222 | Oedema (difference in paw volume from basal values on day 21) in both hind paws [1, 14]: 0.028 | Total hind paw volume (sum of both hind paws) [1, 14]: 0.255 | Oedema (difference in paw volume from basal values on day 21) in both hind paws [1, 15]: 0.031 | Total hind paw volume (sum of both hind paws) [1, 15]: 0.257 | Oedema (difference in paw volume from basal values on day 21) in both hind paws [1, 16]: 0.021 | Total hind paw volume (sum of both hind paws) [1, 16]: 0.247 | Oedema (difference in paw volume from basal values on day 21) in both hind paws [1, 17]: 0.023 | Total hind paw volume (sum of both hind paws) [1, 17]: 0.250 | Oedema (difference in paw volume from basal values on day 21) in both hind paws [1, 18]: 0.011 | Total hind paw volume (sum of both hind paws) [1, 18]: 0.238 | Oedema (difference in paw volume from basal values on day 21) in both hind paws [1, 19]: 0.028 | Total hind paw volume (sum of both hind paws) [1, 19]: 0.254 | Oedema (difference in paw volume from basal values on day 21) in both hind paws [1, 20]: 0.025 | Total hind paw volume (sum of both hind paws) [1, 20]: 0.252 | Oedema (difference in paw volume from basal values on day 21) in both hind paws [1, 21]: 0.030 | Total hind paw volume (sum of both hind paws) [1, 21]: 0.256 | Oedema (difference in paw volume from basal values on day 21) in both hind paws [1, 22]: 0.030 | Total hind paw volume (sum of both hind paws) [1, 22]: 0.256 | Oedema (difference in paw volume from basal values on day 21) in both hind paws [1, 23]: 0.021 | Total hind paw volume (sum of both hind paws) [1, 23]: 0.248 | Oedema (difference in paw volume from basal values on day 21) in both hind paws [1, 24]: 0.040 | Total hind paw volume (sum of both hind paws) [1, 24]: 0.266 | Oedema (difference in paw volume from basal values on day 21) in both hind paws [1, 25]: 0.052 | Total hind paw volume (sum of both hind paws) [1, 25]: 0.279 | Oedema (difference in paw volume from basal values on day 21) in both hind paws [1, 26]: 0.058 | Total hind paw volume (sum of both hind paws) [1, 26]: 0.285 | Oedema (difference in paw volume from basal values on day 21) in both hind paws [1, 27]: 0.058 | Total hind paw volume (sum of both hind paws) [1, 27]: 0.28 | Oedema (difference in paw volume from basal values on day 21) in both hind paws [1, 28]: 0.064 | Total hind paw volume (sum of both hind paws) [1, 28]: 0.29 | Oedema (difference in paw volume from basal values on day 21) in both hind paws [1, 29]: 0.076 | Total hind paw volume (sum of both hind paws) [1, 29]: 0.30 | effect on hind paw oedema (in words) ([1]; test item 10 mg/kg BID, Indomethacin 1 mg/kg Q.D, oral): significant anti-inflammatory response

Oc1c(I)cc(I)cc1I [2,4,6-triiodophenol]
IC50 (LTB4 synthesis): 16.6 µg/mL (≈ 35.2 µM) | safety and tolerability ([2]; single oral dose from 6 mg to 1200 mg): very good safety and tolerability profiles | pharmacokinetic behavior ([2]; single oral dose, at least in the range from 240 to 700 mg): predictable and dose-independent
